These are literature values, as cited in patent US20210315249A1, “Cannabis-Infused Product with Controlled Cannabinoid Profile User Experience” (HEXO […]., priority 2018, published 2021).

The conditions of data set [1]: dogs; emulsion droplet size 119 nm or 52 nm.
For data set [2] the following is noted: rats; solution in MCT oil or emulsion with droplet size 160 nm or 710 nm.

SMILES strings stand for the structures. Where two headings read alike, the source gives them in different places.

For the molecule `CCCCN(CCCC)CCC(O)c1cc2c(Cl)cc(Cl)cc2c2cc(C(F)(F)F)ccc12` (centres unmarked) [halofantrine], the bioavailability result in data set [1] was “comparable bioavailability”.

On to `COc1nc(C(Cl)(Cl)Cl)c(Cl)c(OC)c1Cl` [penclomedine], for which, in data set [2], the bioavailability result is given as “comparable bioavailability”.
